Laboratory results as given in article PMC5508670, “Conformationally restricted calpain inhibitors” (Chemical Science, 2015).
Like-named read-outs stand apart in the source and are kept apart here.

Experiments:
[1] = target: T1, calpain-I (Sus scrofa, UniProt P35750); test: FRET-based calpain-I inhibition assay in the presence and absence of 10 mM DTT; type: biochemical, porcine
T1 construct: purchased CalBiochem
T1 sequence (P35750 1-714): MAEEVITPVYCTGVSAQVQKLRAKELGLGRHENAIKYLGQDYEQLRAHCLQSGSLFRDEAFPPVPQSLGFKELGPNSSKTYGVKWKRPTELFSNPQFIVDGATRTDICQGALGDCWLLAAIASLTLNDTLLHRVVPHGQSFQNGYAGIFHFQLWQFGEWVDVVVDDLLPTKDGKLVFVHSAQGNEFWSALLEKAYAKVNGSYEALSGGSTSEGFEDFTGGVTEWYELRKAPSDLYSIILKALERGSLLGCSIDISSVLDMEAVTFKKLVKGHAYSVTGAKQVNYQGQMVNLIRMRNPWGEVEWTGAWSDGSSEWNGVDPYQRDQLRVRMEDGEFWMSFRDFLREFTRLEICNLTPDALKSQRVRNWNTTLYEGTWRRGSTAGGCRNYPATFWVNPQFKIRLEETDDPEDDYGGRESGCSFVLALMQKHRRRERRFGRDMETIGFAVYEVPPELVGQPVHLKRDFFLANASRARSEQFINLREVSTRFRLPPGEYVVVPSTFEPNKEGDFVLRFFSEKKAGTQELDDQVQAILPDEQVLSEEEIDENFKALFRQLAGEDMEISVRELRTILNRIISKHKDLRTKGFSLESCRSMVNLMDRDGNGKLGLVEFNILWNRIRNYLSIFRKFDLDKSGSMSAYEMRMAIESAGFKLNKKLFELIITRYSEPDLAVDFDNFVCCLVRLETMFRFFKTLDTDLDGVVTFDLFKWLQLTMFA
T1 sequence (P04574 1-266): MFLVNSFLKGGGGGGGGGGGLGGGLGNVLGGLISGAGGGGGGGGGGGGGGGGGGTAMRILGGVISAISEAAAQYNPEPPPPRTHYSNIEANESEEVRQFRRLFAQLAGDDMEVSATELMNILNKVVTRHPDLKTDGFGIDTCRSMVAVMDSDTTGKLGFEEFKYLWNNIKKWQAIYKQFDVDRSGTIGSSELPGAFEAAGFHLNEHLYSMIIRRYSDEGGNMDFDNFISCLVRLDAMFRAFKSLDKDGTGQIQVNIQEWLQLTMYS
Protocol: The inhibitory properties of a series of oxidised and reduced α-mercaptoacrylic acid derivatives towards calpain-I (Fig. 4) were assessed in a FRET-based assay in the presence and absence of 10 mM dithiothreitol (DTT).[24],[25] To ensure complete oxidation, compounds were left in the assay solution for 3 hours prior to performing the assay (vide supra and ESI ^†). In the absence of inhibitors there was no observable difference in enzyme activity when assayed under both oxidising and reducing conditions.
Protein Expression, Crystallisation and FRET Based Inhibition Assay Methods […]
FRET based Inhibition Assay
This assay employed a peptide from the calpain-1 substrate α-spectrin, with fluorescein at one terminus internally quenched by DABCYL and the other (H2N-K(FAM)-EVYGMMK(DABCYL)-OH).11 Cleavage by calpain-1 occurs between the Tyr-Gly residues and results in enhanced fluorescence as the quenching effect is relieved. The assays were performed using purified porcine Calpain-1 (CalBiochem, 10 nM) and fluorogenic calpain-1 substrate (Merck, 1 µM) in an assay buffer consisting of HEPES (10 mM) pH 6.8; EDTA (0.5 mM); bovine serum albumin (0.1%). The assay was performed using a fluorescent plate reader (BMG Optistar) in an assay volume of 100 µl at a temperature of 37°C, using an excitation band pass filter centred at 485 nm and emission detected at 520 nm. The compounds to be tested for inhibition were added to the assay mixture before the reaction was initated by the addition of CaCl2 (5 mM).
None of the compounds had significant fluorescence at this wavelength and correction for this was unnecessary. The compounds were dissolved in DMSO at 50 mM and diluted into assay buffer to give range of concentrations from 5 nM to 50 µM. In each assay run, the effect of DMSO alone over the concentration used was also measured. Although there was no effect of DM SO at lower concentrations, in some assay runs, DM SO at 0.005%-0.5% produced some inhibitory effect. This DM SO effect (which was only relevant for compounds with poor inhibitory ability) was subtracted before constructing the inhibition curves.
FRET based inhibition assay (DTT addition)
The same procedure was used as described above except with assay buffer containing HEPES (10 mM) pH 6.8; EDTA (0.5 mM); bovine serum albumin (0.1%) and DTT (10 mM).

[2] = target: Calpain-II; set-up: method as in PMID 8692879; details: cited from earlier work
[3] = target: Calpain-I; set-up: method as in PMID 8692879; details: cited from earlier work
[4] = Oxidation of sulfhydryl to disulfide in solution (UV-VIS / 1H-NMR); type: physicochemical
Protocol: The rate of conversion of 3 to its disulfide form was dependent upon both the concentration of the compound and the nature of the solution. […] […] Compound 4 was then added to preformed crystals of PEF(S).

[5] = presence of 10 mM DTT (reduced sulfhydryl form), read-out: IC50, Sulfhydryl
[6] = absence of DTT (oxidised disulfide form), compounds left 3 hours in assay solution before the assay, read-out: IC50, Disulfide
[7] = thioethers, 10 mM DTT, read-out: IC50 (DTT)
[8] = thioethers, no DTT, read-out: IC50 (No DTT)
[9] = thioethers, DTT had no effect on the potency, read-out: IC50
[10] = absence of DTT (disulfide form), read-out: IC50 of oxidised compounds

SMILES	IC50 [1, 5]	IC50 [1, 6]	further results
O=C(O)/C(S)=C/c1c[nH]c2ccc(Cl)cc12 [compound 24]	1.5 µM	–	–
O=C(O)/C(S)=C/c1ccc(I)cc1 [PD150606]	–	–	Ki [2]: 0.37 µM; Ki [3]: 0.21 µM
O=C(O)/C(S)=C/c1cccc(I)c1 [compound 16]	3 µM	–	–
O=C(O)/C(S)=C/c1c[nH]c2c(Cl)cccc12 [compound 36]	4 µM	–	–
O=C(O)/C(=C/c1c[nH]c2cc(I)ccc12)SS/C(=C\c1c[nH]c2cc(I)ccc12)C(=O)O [compound 35]	–	0.01 µM	–
O=C(O)/C(=C/c1c[nH]c2c(I)cccc12)SS/C(=C\c1c[nH]c2c(I)cccc12)C(=O)O [compound 39]	–	0.02 µM	–
O=C(O)/C(S)=C/c1c[nH]c2ccc(I)cc12 [compound 28]	0.5 µM	–	–
O=C(O)/C(S)=C/c1c[nH]c2ccc(F)cc12 [PD151746]	–	–	Ki [2]: 5.33 µM; Ki [3]: 0.26 µM
O=C(O)/C(=C/c1ccccc1F)SS/C(=C\c1ccccc1F)C(=O)O [compound 6]	–	0.065 µM	–
O=C(O)/C(S)=C/c1cccc(F)c1 [compound 11]	50 µM	–	–
O=C(O)/C(=C/c1ccc(F)cc1)SS/C(=C\c1ccc(F)cc1)C(=O)O [compound 19]	–	0.05 µM	–
O=C(O)/C(S)=C/c1ccccc1F [compound 5]	50 µM	–	–
O=C(O)/C(=C/c1c[nH]c2ccc(I)cc12)SS/C(=C\c1c[nH]c2ccc(I)cc12)C(=O)O [compound 29]	–	0.015 µM	–
O=C(O)/C(=C/c1ccc(Br)cc1)CS/C(=C\c1ccc(Br)cc1)C(=O)O [compound 40, (Z)-3-(4-Bromophenyl)-2-((((Z)-2-(4-bromophenyl)-1-carboxyvinyl)thio)methyl)acrylic acid]	–	–	IC50 [1, 7]: 10 µM; IC50 [1, 8]: 10 µM
O=C(O)/C(S)=C/c1c[nH]c2cc(Cl)ccc12 [compound 30]	1 µM	–	–
O=C(O)/C(=C/c1cccc(Cl)c1)CS/C(=C\c1c[nH]c2ccc(Br)cc12)C(=O)O [compound 42, (Z)-3-(5-bromoindol-3-yl)-2-(((Z)-2-carboxy-3-(3-chlorophenyl)allyl)thio)acrylic acid]	–	–	IC50 [1, 8]: 2 µM; IC50 [1, 9]: 1.8 µM
O=C(O)/C(=C/c1c[nH]c2ccc(Cl)cc12)SS/C(=C\c1c[nH]c2ccc(Cl)cc12)C(=O)O [compound 25]	–	0.018 µM	–

SMILES	IC50 [1, 5]	IC50 [1, 6]	further results
O=C(O)/C(=C/c1ccc(Cl)cc1)SS/C(=C\c1ccc(Cl)cc1)C(=O)O [compound 21]	–	0.01 µM	–
O=C(O)/C(=C/c1ccccc1Br)SS/C(=C\c1ccccc1Br)C(=O)O [compound 10]	–	0.25 µM	–
O=C(O)/C(=C/c1cccc(Cl)c1)CS/C(=C\c1ccc(Cl)cc1)C(=O)O [compound 41, (Z)-3-(3-chlorophenyl)-2-((((Z)-2-(4-chlorophenyl)-1-carboxyvinyl)thio)methyl)acrylic acid]	–	–	IC50 [1, 7]: > 100 µM; IC50 [1, 8]: > 100 µM; IC50 [1, 9]: > 100 µM
O=C(O)/C(S)=C/c1c[nH]c2cc(I)ccc12 [compound 34]	0.5 µM	–	–
O=C(O)/C(S)=C/c1c[nH]c2cc(Br)ccc12 [compound 3, (Z)-3-(6-bromoindole-3-yl)-2-mercaptoacrylic acid]	0.5 µM	–	time to complete conversion to oxidised (disulfide) form ([4]; 100 μM in 100 mM KiPO4, pH 7.0, room temperature, UV-VIS): 3 h; time after which oxidation was complete ([4]; 50 mM in DMSO, room temperature, 1H-NMR): 24 h
O=C(O)/C(S)=C/c1c[nH]c2c(I)cccc12 [compound 38]	2 µM	–	–
O=C(O)/C(S)=C/c1ccc(F)cc1 [compound 18]	50 µM	–	–
O=C(O)/C(=C/c1ccc(I)cc1)SS/C(=C\c1ccc(I)cc1)C(=O)O [compound 23]	–	–	IC50 [1, 10]: 0.0075 µM
O=C(O)/C(=C/c1c[nH]c2ccc(Br)cc12)SS/C(=C\c1c[nH]c2ccc(Br)cc12)C(=O)O [compound 27]	–	0.01 µM	–
O=C(O)/C(S)=C/c1ccccc1Cl [compound 7]	60 µM	–	–
O=C(O)/C(=C/c1c[nH]c2cc(Cl)ccc12)SS/C(=C\c1c[nH]c2cc(Cl)ccc12)C(=O)O [compound 31]	–	0.028 µM	–
O=C(O)/C(S)=C/c1c[nH]c2ccc(Br)cc12 [compound 26]	0.5 µM	–	–
O=C(O)/C(=C/c1ccc(Br)cc1)CS/C(=C\c1c[nH]c2cc(Br)ccc12)C(=O)O [compound 43, (Z)-3-(6-bromoindol-3-yl)-2-(((Z)-3-(4-bromophenyl)-2-carboxyallyl)thio)acrylic acid]	–	–	IC50 [1, 7]: 10 µM; IC50 [1, 8]: 10 µM
O=C(O)/C(=C/c1c[nH]c2cc(Br)ccc12)SS/C(=C\c1c[nH]c2cc(Br)ccc12)C(=O)O [compound 4, (2Z,2′Z)-2,2′-disulfanediylbis(3-(6-bromoindol-3-yl)acrylic acid)]	–	–	IC50 ([1]; disulfide prepared by iodine mediated oxidation and in situ prior to the assay, read-out: IC50 (dose response curve, Figure S8)): 0.2 µM
O=C(O)/C(S)=C/c1ccccc1Br [compound 9]	50 µM	–	–
O=C(O)/C(=C/c1c[nH]c2c(Cl)cccc12)SS/C(=C\c1c[nH]c2c(Cl)cccc12)C(=O)O [compound 37]	–	0.023 µM	–
O=C(O)/C(=C/c1cccc(I)c1)SS/C(=C\c1cccc(I)c1)C(=O)O [compound 17]	–	–	IC50 [1, 10]: 0.025 µM
